Test results from patent publication US9447157B2, “Nitration shielding peptides and methods of use thereof” (Augusta University Research Institute, Inc., priority 2013, dated 2016).

Legend:
[1] = biological target: T1, PKG-1α (Homo sapiens, UniProt Q13976); assay: PKG protein levels and PKG activity in transfected PASMC; assay type: cell-based; settings: PASMC transfected with WT-PKG-1α, SIN-1 500 μM 48 h
T1 construct: transfected with an expression plasmid containing a full length WT-PKG-1α cDNA; made in house; host or cells: HEK-293T (methods); the results paragraph b527 says PASMC
T1 sequence (Q13976 2-671): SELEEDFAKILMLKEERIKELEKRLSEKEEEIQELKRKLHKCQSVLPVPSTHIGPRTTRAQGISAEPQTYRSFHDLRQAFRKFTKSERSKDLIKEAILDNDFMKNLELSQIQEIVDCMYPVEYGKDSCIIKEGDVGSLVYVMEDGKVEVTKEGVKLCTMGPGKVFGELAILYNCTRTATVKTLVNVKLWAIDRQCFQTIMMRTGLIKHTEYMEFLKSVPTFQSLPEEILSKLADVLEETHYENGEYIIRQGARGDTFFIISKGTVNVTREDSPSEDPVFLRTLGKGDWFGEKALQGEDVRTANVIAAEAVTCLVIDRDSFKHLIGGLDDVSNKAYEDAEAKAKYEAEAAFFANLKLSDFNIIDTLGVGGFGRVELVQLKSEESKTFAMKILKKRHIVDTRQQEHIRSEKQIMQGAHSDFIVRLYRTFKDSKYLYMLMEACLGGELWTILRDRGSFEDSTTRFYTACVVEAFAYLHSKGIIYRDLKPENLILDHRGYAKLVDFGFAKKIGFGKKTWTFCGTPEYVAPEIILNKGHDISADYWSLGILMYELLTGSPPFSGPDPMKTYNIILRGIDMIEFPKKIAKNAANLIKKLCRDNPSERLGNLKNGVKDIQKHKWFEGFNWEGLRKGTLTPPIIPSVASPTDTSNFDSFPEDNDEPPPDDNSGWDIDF
Protocol: Therefore, the effect of these events were investigated in PASMC transiently transfected with expression plasmids containing WT- and Y247F-PKG-1α. The effect of nitration on pulmonary arterial smooth muscle cell (PASMC) growth and metabolism was determined. PASMC were transiently transfected with expression plasmids containing WT-PKG-1α, Y247F-PKG-1α or pDEST40 (as a control) for 20 h. Cells were then exposed or not to SIN-1 (500 μM, 48 h) and the effect on PKG protein levels (FIG. 17A) and activity determined (FIG. 17B).
Cells were prepared as previously described (Sud, N., et al., American Journal of Physiology 293, L1444-1453 (2007); Sharma, S., et al., American Journal of Physiology 294, L46-56 (2008)). Briefly, the cellular protein extracts were prepared by homogenizing the cells in lysis buffer (50 mM Tris-HCl, pH 7.6, 0.5% Triton X-100, and 20% glycerol) containing Halt protease inhibitor cocktail (Pierce, Rockford, Ill.). The extracts were then clarified by centrifugation (20,000 g for 20 min at 4° C.). […] Reactive bands were visualized using chemi-luminescence (Pierce Laboratories, Rockford, Ill.) on a Kodak 440CF image station. The band intensity was quantified using Kodak 1D image processing software. […]
Measurement of PKG Catalytic Activity Total PKG activity was determined using a non-radioactive immunoassay in cell lysates, according to the manufacturer's directions. […]

[2] = system: Pulmonary artery smooth muscle cells (PASMC); assay: PASMC cell growth (cell count); assay type: cell-based, lamb; settings: SIN-1 500 μM 48 h
Protocol: Pulmonary artery smooth muscle cells (PASMC) were grown on a 10 cm dish to 75% confluence, transfected with WT-PKG-1α or Y247F-PKG-1α cDNA using a Qiagen transfection kit, according to manufacturer's instructions, and incubated at 37° C. for 20 h. […] The cells were then trypsinized, seeded onto a 6-well plate at a density of 2.5×10^4 cells per well, and grown for an additional 4 h in serum-free DMEM growth medium containing 1% FBS and antibiotics. The cells were then treated with or without SIN-1 (500 μM) and allowed to grow at 37° C. in the incubator for an additional 48 h. The cellular proliferation was evaluated by counting the cells with a hemacytometer (Cascade Biologicals™, Portland, Oreg.) after the trypsinization of the PASMC monolayers.

Substance: 3-morpholinosydnonimine N-ethylcarbamide [SIN-1]
- cGMP dependent increase in PKG activity, WT-PKG-1α cells [1]: attenuated
- Proliferation, WT-PKG-1α transfected PASMC [2]: stimulated
